{
  "source": "patent US20230374505A1",
  "about": "“Human XIST Antisense Oligonucleotides for X Reactivation Therapy” (The General Hospital Corporation, priority 2020, published 2023)",
  "key": {"cell culture": {"system": "cell culture", "assay": "Tolerable Aza concentration in cell culture", "type": "cell-based"}, "[1]": {"settings": "in plasma; cited from earlier work"}, "[2]": {"system": "Xi reactivation in the brain", "assay": "Aza/decitabine three pulse treatment, Xi reactivation in the brain", "type": "in vivo, mouse", "settings": "three short pulses delivered systemically; after two weeks", "excerpt": "ASO drugs are generally more specific and have the advantage that information on pharmacokinetics and toxicity studies for chemically similar ASOs is transferable and cumulative. Thus, ASOs may have a more favorable path to regulatory approval. Small molecules generally have lower selectivity and may face steeper hurdles in the approval process within the US Food and Drug Administration (FDA). By mixing modalities, our approach may potentially anticipate a more streamlined approach to FDA approval. […] Unlike LNA-based ASOs which have tissue half-lives of several weeks (Wahlestedt C et al. Potent and nontoxic antisense oligonucleotides containing locked nucleic acids. Proc Natl Acad Sci USA. 2000; 97:5633-5638), Aza is known to have a very short half-life (t1/2<1h in plasma) (Welch J S et al. TP53 and decitabine in acute myeloid leukemia and myelodysplastic syndromes. N Engl J Med. 2016; 375:2023-2036). However, once DNA is demethylated, the state may be stable (Kordasiewicz H B et al. Sustained therapeutic reversal of Huntington's disease by transient repression of huntingtin synthesis. Neuron. 2012; 74:1031-1044). Future work will determine the duration of the effect and whether periodic boosters of either Aza or ASO might be necessary to maintain the reactivation.\nDecitabine was administered to the XIST2lox, Nestin-Cre F2 generation, by IP injection at 5 weeks old. […]"}, "[3]": {"system": "human CDKL5 patient fibroblast line", "assay": "Toxicity of nanaomycin to CDKL5 patient fibroblasts", "type": "cell-based", "settings": "added every 2 days, 5 days treatment; data not shown", "method": "Experiments were also conducted to test Xi reactivation in human CDKL5 patient's fibroblast with XIST ASO-6B and DNMT3 inhibitor, Nanaomycin, co-treatment. A human CDKL5 patient fibroblast line carrying mutation on the Xa was treated with an ASO to XIST and a DNMT3i, nanaomycin A. After 5 days of treatment with 20 nM XIST ASO-6B (added once at day 0; lipofectamine transfection) and 25 nM-1 uM nanaomycin A (added every 2 days; days 0, 2, and 4), cells were harvested for qPCR analysis (FIG. 10A). Nanaomycin is very toxic, and the cells were dead in concentration above 250 nM (data not shown)."}, "CDKL5 wt allele (Xi)": {"system": "CDKL5 wt allele (Xi)", "assay": "CDKL5 wt allele reactivation in human CDKL5 patient fibroblasts, allele-specific qPCR", "type": "cell-based", "method": "FIGS. 6A-6B. XIST ASO (ASO-6B) and DNMTi co-treatment in CDKL5 patient fibroblast. (A) A schematic of treatment of a human CDKL5 patient fibroblast line carrying mutation on the Xa. After 3 days of treatment with 100 nM XIST ASOs (lipofectamine transfection) and 0.5 uM Aza (added every 2 days), harvested cells underwent qPCR analysis. […] CDKL5 wt reactivation was normalized to CDKL5mut expression from the Xa chromosome, normalized to RPL13a.\n(§1) FIGS. 8A-8C. Xi reactivation in human CDKL5 patient's fibroblast with XIST ASO+/−DNMTi (Decitabine, Azacitidine, RG-108). (A) A human CDKL5 patient fibroblast line carrying mutation on the Xa was treated with ASOs to XIST and three DNMTi. On day 0, cells were treated with 20 nM of XIST ASO-6B, and 1 uM of each DNMTi every 2 days. On day 7, cells were harvested for qPCR analysis. […] XIST expression was relative to untreated levels, normalized to RPL13a. […] CDKL5 wt reactivation was normalized to CDKL5mut expression from the Xa chromosome.\nFIGS. 9A-9C. Xi reactivation in human CDKL5 patient's fibroblast with XIST ASO-6B and DNMT inhibitor (SGI-1027) co-treatment. (A) A human CDKL5 patient fibroblast line carrying mutation on the Xa was treated with an ASO to XIST and an DNMTi. […]"}, "XIST": {"system": "XIST", "assay": "XIST expression in CDKL5 patient fibroblasts after XIST ASO with or without DNMTi, qPCR", "type": "cell-based, human", "method": "as §1, with “days.” for “days. On day 7, cells were harvested for qPCR analysis.”\nFIGS. 11A-11B. Triplicate experiment showing Xi reactivation in human CDKL5 patient's fibroblast with XIST ASO+/−DNMTi (Decitabine, Azacitidine, RG-108). […] CDKL5 wt reactivation was normalized to CDKL5mut expression from the Xa chromosome. Data shown are the average of three experiments; error bars are standard deviation.\nRNA was isolated by Trizol (Life Technologies) extraction (tissues were snap frozen in liquid nitrogen and ground with pestle and mortar or put in Trizol and homogenized using a Qiagen TissueLyser), treated with TurboDNAse for 30 min at 37° C. […] The relative efficiency of the reactivations was calculated by comparing to GAPDH or TBP RNA as the internal control in mouse experiment. The relative efficiency of the reactivations was calculated by comparing to RPL13a as the internal control in human cells. […]"}},
  "data": [
    {"compound": "Nc1ncn([C@H]2C[C@H](O)[C@@H](CO)O2)c(=O)n1", "note": "[Aza, 5-aza-2′-deoxycytidine]", "values": [
      {"measurement": "tolerable concentration in cell culture", "setting": "cell culture", "result": 0.5, "unit": "µM"},
      {"measurement": "t1/2", "setting": "[1]", "result": "< 1", "unit": "h"},
      {"measurement": "Xi reactivation in the brain", "setting": "[2]", "result": "sufficient to induce Xi reactivation"}
    ]},
    {"compound": "CC1OC(CC(=O)O)CC2=C1C(=O)c1c(O)cccc1C2=O", "note": "(centres unmarked) [Nanaomycin, nanaomycin A]", "values": [
      {"measurement": "concentration above which the cells were dead", "setting": "[3]", "result": "above 250 nM"}
    ]},
    {"compound": "ASO 6B: XIST ASO AGAAGTCTGGCACATCTGTG, SEQ ID NO:11 (LNA-flanked DNA gapmer, wing lengths and linkages not given here, further chemistry not given here)", "values": [
      {"measurement": "CDKL5 reactivation", "setting": "CDKL5 wt allele (Xi); 20 nM ASO 6B at day 0, 1 uM Decitabine, 0.5 uM Azacitidine or 1 uM RG-108 at days 0 and 2, harvested Day 4, average of three experiments (FIG. 11B)", "result": 0.13, "unit": "%"},
      {"measurement": "CDKL5 reactivation", "setting": "CDKL5 wt allele (Xi); 20 nM ASO-6B at day 0, 1 uM DNMTi every 2 days, harvested day 7 (FIG. 8C)", "result": 0.7, "unit": "%"},
      {"measurement": "XIST expression", "setting": "XIST; 20 nM ASO-6B with and without 1 uM DNMTi, 7 days (FIG. 8B)", "result": "decreased"},
      {"measurement": "XIST expression", "setting": "XIST; 20 nM ASO-6B with or without DNMTi, 4 days (FIG. 11A)", "result": "decreased"}
    ]}
  ]
}
